Data reported in ChEMBL document CHEMBL1155618, “Junceellolides E-G, new briarane diterpenes from the West Pacific Ocean gorgonian Junceella fragilis” (J Nat Prod, 2000).
Active and inactive are the calls of the source.

What was measured:
Type in all cases: functional, cell-based
P388 = assay: Cytotoxicity against mouse P388 cells
A549 = assay: Cytotoxicity against human A549 cells
HT-29 = assay: Cytotoxicity against human HT29 cells

Measured: Activity

C=C1CC[C@H](OC(C)=O)[C@@]2(C)[C@H]1[C@@H](OC(C)=O)[C@@]1(O)[C@H](/C=C(/C)CC[C@H]2OC(C)=O)OC(=O)[C@@H]1C
inactive: all assays above

C=C1CC[C@H](OC(C)=O)[C@@]2(C)[C@H]1[C@@H](OC(C)=O)[C@@]1(O)[C@H](/C=C(/C)CC[C@H]2OC(=O)CC)OC(=O)[C@@H]1C
inactive: all assays above

CCC(=O)O[C@@H]1CC/C(C)=C\[C@@H]2OC(=O)[C@H](C)[C@@]2(O)[C@H](OC(C)=O)[C@H]2[C@]3(CC[C@H](OC(C)=O)[C@]12C)CO3
inactive: all assays above

CC(=O)O[C@@H]1[C@@H]2[C@@](C)([C@H](O)CC/C(C)=C\[C@@H]3OC(=O)[C@H](C)[C@]31O)[C@@H](O)CC[C@]2(C)O
inactive: all assays above
